Entries after “also recorded” stand apart in the source; their conditions may differ.
How the values were obtained:
[1] = biological target: T1, PPARα (Mus musculus, UniProt P23204); test: Cotransfection assay in CV-1 cells, PPRE3-TK-LUC reporter, CMX-PPARα; format: cell-based; settings: 5 μM Wy 14,643, 30 μM linoleic acid, 30 μM LY-171883
T1 construct: constructed by inserting the cDNA inserts of PPARα, PPARγ, and PPARδ into pCMX; expressed in transfected cells; host or cells: CV-1 cells
T1 sequence (P23204 1-468): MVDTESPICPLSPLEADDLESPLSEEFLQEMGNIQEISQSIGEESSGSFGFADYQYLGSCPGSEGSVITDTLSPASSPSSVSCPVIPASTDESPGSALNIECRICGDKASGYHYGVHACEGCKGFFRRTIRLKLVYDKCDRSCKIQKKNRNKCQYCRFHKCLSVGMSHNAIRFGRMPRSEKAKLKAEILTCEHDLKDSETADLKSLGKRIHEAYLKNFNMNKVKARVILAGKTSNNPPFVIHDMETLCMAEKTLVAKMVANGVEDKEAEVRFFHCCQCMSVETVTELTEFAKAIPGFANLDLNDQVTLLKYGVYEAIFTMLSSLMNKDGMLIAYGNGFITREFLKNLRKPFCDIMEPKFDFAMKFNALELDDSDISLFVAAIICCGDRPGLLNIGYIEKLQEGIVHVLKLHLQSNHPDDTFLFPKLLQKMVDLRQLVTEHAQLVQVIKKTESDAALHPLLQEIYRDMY
Text: (§1) Luciferase activities are presented as the fold activation achieved in compound-treated versus mock-treated cells. Similar results were obtained in triplicate in three independent experiments.
(§2) The mammalian expression vectors pCMX-PPARα, pCMX-PPARγ and pCMX-PPARδ were constructed by inserting the cDNA inserts of PPARα, PPARγ, and PPARδ into pCMX as previously described by Umesono et al., in Cell 65:1255-1266 (1991)). Construction of the reporter PPRE3-TK-LUC has also been previously described by Kliewer et al., (1992) supra. Cotransfection assays in CV-1 cells were done in 48 well plates using N-[1-(2,3-dioleoyloxy)-propyl [N,N,N-trimethyl ammonium methyl sulfate (DOTAP) according to the manufacturer's instructions (Boehringer Mannheim). Transfections contained 10 ng of receptor expression plasmid vector, 20 ng of the reporter PPRE3-TK-LUC, 60 ng of pCMX-βGAL (β-galactosidase) as an internal control, and 210 ng of carrier plasmid pGEM. Cells were incubated in the presence of DOTAP for 8 hours, washed, and incubated in the presence of peroxisome proliferators or fatty acids for 36 hours. Cell extracts were prepared and assayed for luciferase and β-galactosidase activity as previously described (Umesono, supra). All experimental points were done in triplicate.

[2] = biological target: T2, PPARδ (Mus musculus, UniProt P35396, A150G/E149D); test: Cotransfection assay in CV-1 cells, PPRE3-TK-LUC reporter, CMX-PPARδ; format: cell-based; settings: 5 μM Wy 14,643, 30 μM linoleic acid, 30 μM LY-171883
T2 construct: The second clone encodes a 440-amino acid protein; expressed in transfected cells; host or cells: CV-1 cells
T2 sequence (P35396 1-440 E149D/A150G): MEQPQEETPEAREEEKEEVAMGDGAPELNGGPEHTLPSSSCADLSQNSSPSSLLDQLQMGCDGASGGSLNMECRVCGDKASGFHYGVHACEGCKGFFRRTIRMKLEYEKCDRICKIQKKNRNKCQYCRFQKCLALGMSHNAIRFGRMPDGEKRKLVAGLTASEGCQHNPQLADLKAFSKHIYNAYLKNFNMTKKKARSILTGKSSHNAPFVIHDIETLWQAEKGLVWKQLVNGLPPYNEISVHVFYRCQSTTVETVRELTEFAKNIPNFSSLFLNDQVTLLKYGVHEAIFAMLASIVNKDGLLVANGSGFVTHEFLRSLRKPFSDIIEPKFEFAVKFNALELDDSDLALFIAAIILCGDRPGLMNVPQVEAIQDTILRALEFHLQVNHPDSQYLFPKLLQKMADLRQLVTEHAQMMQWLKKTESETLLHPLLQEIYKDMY
Text: as §2

[3] = biological target: T3, PPARγ (Mus musculus, UniProt P37238, N383S); test: Cotransfection assay in CV-1 cells, PPRE3-TK-LUC reporter, CMX-PPARγ; format: cell-based; settings: 5 μM Wy 14,643, 30 μM linoleic acid, 30 μM LY-171883
T3 construct: The first clone encodes a 475-amino acid protein; expressed in transfected cells; host or cells: CV-1 cells
T3 sequence (P37238 31-505 N383S): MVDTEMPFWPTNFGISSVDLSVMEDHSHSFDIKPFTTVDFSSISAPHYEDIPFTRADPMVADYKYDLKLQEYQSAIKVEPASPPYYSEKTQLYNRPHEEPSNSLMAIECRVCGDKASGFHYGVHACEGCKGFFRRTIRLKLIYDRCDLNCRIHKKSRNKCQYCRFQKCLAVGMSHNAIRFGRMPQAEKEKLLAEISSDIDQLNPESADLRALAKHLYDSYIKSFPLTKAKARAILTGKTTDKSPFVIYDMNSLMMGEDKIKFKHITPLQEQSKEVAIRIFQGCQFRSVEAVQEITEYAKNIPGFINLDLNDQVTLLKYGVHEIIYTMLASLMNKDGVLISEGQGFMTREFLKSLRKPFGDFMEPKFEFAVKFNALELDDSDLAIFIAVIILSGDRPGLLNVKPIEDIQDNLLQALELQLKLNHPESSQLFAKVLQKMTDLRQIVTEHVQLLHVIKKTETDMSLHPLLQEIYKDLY
Text: as §1, §2

[4] = tested on: PPARα; test: cell_activity; settings: 5 uM Wy 14,643, CV-1 cells, luciferase reporter

| Compound | activation of PPARα (reporter expression) [1] | activation of PPARδ (reporter expression) [2] | activation of PPARγ (reporter expression) [3] | activity (fold activation) [4] |
| --- | --- | --- | --- | --- |
| CCCc1c(OCCCCc2nnn[nH]2)ccc(C(C)=O)c1O [LY-171883] | strong activators | not activated | significant activation; also recorded: most efficiently activated |  |
| PPRE3-TK-LUC (three copies of AOX-PPRE) |  |  |  | > 100 |
| CCCCC/C=C\C/C=C\CCCCCCCC(=O)O [linoleic acid] | strong activators | activated; also recorded: most efficiently activated | no activation |  |
| Cc1cccc(Nc2cc(Cl)nc(SCC(=O)O)n2)c1C [Wy 14,643] | most efficiently activated |  | no activation; also recorded: fail to respond; also recorded: fails to activate |  |
